Key:
[1] = C and EC metabolite levels in rat brain tissue after 10 days repeated dosing; assay type: in vivo; conditions: rats, following repeated dosing with GP or with Mo
[2] = tested on: CaMKII; assay: Western blot of phospho- and total CaMKII in hippocampal slices; assay type: cell-based; conditions: 300 nM, 5 hours, hippocampal slices from old Tg2576 mice
[3] = tested on: Erk/MAP kinase 1/2 (Thr185/Tyr187); assay: Multiplex phospho-Erk1/2 immunoassay in hippocampal slices; assay type: cell-based; conditions: 300 nM, 5 hours, hippocampal slices from old Tg2576 mice
[4] = tested on: PKA; assay: PKA activity assay and PKA IIa protein content in hippocampal slices; assay type: cell-based; conditions: 300 nM, 5 hours, hippocampal slices from old Tg2576 mice
[5] = tested on: hippocampal slices from Tg2576 mice; assay: Electrophysiological recordings; assay type: cell-based; conditions: 300 nM, 4–5 h, hippocampal slices from old Tg2576 mice, versus vehicle
[6] = tested on: brain slices from wild type mice; assay: Electrophysiological recordings in brain slices from age-matched wild type mice; assay type: cell-based; conditions: 300 nM
[7] = tested on: MEK1 (Ser222); assay: Multiplex phospho-MEK immunoassay in hippocampal slices; assay type: cell-based; conditions: 300 nM, 5 hours, hippocampal slices from old Tg2576 mice
[8] = tested on: CREB (Ser133); assay: Phospho-CREB immunoassay in hippocampal slices; assay type: cell-based; conditions: 300 nM, 5 hours, hippocampal slices from old Tg2576 mice, versus vehicle

Row | SMILES | free C and EC contents in the brain [1] | level of [Thr286]-phosphorylated, active CaMKII [2] | level of total CaMKII [2] | phosphorylation status of Erk1/2 (Thr185/Tyr187) [3] | PKA (PKA activity assay and PKA IIa protein content) [4] | basal synaptic transmission in the CA1 region [5] | LTP [6] | basal synaptic transmission [6] | phosphorylation status of MEK [7] | levels of [Ser133]-phosphorylated, active CREB [8]
1 | Oc1cc(O)c2c(c1)OC(c1ccc(O)c(O)c1)C(O)C2 (single isomer, unassigned; (+)) [C, (+)-catechin] | trace contents (below levels for quantification) |  |  |  |  |  |  |  |  | 
2 | COc1cc([C@H]2Oc3cc(O)cc(O[C@@H]4O[C@H](C(=O)O)[C@@H](O)[C@H](O)[C@H]4O)c3C[C@H]2O)ccc1O [3’-O-Me-EC-Gluc, 3’-O-methyl-epicatechin-5-O-β-glucuronide] |  | significantly increased | without influencing | did not modulate | nor did it affect | significantly increased | did not have any effect | did not have any effect | did not modulate | significantly increased
3 | Oc1cc(O)c2c(c1)O[C@H](c1ccc(O)c(O)c1)[C@H](O)C2 [EC, (−)-epicatechin] | trace contents (below levels for quantification) |  |  |  |  |  |  |  |  | 
